IC30 data for two compounds are collected here from ChEMBL document CHEMBL1146491, “Seco[D-Asp3]microcystin-RR and [D-Asp3,D-Glu(OMe)6]microcystin-RR, two new microcystins from a toxic water bloom of the cyanobacterium planktothrixrubescens” (J Nat Prod, 2004).

Molecules are shown by their SMILES.

A short description of the experiment: Inhibition of recombinant PP1.

For orientation: IC30 means the concentration needed for an effect of 30%. Take `C=C1C(=O)N[C@H](C)C(=O)N[C@@H](CCCNC(=N)N)C(=O)N[C@@H](C(=O)O)CC(=O)N[C@@H](CCCNC(=N)N)C(=O)N[C@@H](/C=C/C(C)=C/[C@H](C)[C@H](Cc2ccccc2)OC)[C@H](C)C(=O)N[C@@H](C(=O)O)CCC(=O)N1C`: the IC30 is 7.8 µM.
Turning to `CNC(=O)CC[C@@H](NC(=O)[C@@H](C)[C@H](/C=C/C(C)=C/[C@H](C)[C@H](Cc1ccccc1)OC)NC(=O)[C@H](CCCNC(=N)N)NC(=O)C[C@@H](NC(=O)[C@H](CCCNC(=N)N)NC(=O)[C@@H](C)NC(=O)C(C)=O)C(=O)O)C(=O)O`, the IC30 turned out to be 0.8 µM.
